Common to all, as to assay: level (log10 ratio to DMSO vehicle control); higher = higher biomarker level / cell amount than vehicle control
Compound in test [1]: NS(=O)(=O)C(F)(F)C(F)(F)C(F)(F)C(F)(F)C(F)(F)C(F)(F)C(F)(F)C(F)(F)F [Perfluorooctanesulfonamide] (in DMSO)
On the procedure: (§1)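 BioMAP Diversity Plus panel of 12 human primary cell co-culture systems (3C, 4H, LPS, SAg, BT, BF4T, BE3C, CASM3C, HDF3CGF, KF3CT, MyoF, Mphg). Compounds were added 1 h before stimulation and left for 24 h (MyoF 48 h; BT 72 h for soluble read-outs or 6 d for IgG). Biomarkers were read by ELISA, cytotoxicity by SRB, PBMC viability and proliferation by Alamar Blue. Each well value was divided by the mean of 8 DMSO control wells on the same plate and log10 transformed; duplicate blinded samples were tested at 4 concentrations.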

Compound in test [2]: OCC(F)(F)C(F)(F)C(F)(F)C(F)(F)C(F)(F)C(F)(F)CO [1H,1H,8H,8H-Perfluorooctane-1,8-diol] (in DMSO)
How it is done:
as §1

Compound in the next test: O=C(O)C(F)(F)C(F)(F)C(F)(F)C(F)(F)C(=O)O [Octafluoroadipic acid] (in DMSO)
How it is done: as §1

Compound in test [3]: CO[Si](C)(CCC(F)(F)C(F)(F)C(F)(F)C(F)(F)C(F)(F)C(F)(F)F)OC [Dimethoxymethyl((perfluorohexyl)ethyl)silane] (in DMSO)
On the procedure:
as §1

Compound in test [4]: O=S(=O)(O)C(F)(F)C(F)(F)OC(F)(F)C(F)(F)F [Perfluoro(2-ethoxyethane)sulfonic acid] (in DMSO)
How it is done: as §1

Compound in test [5]: O=C(O)C(F)(OC(F)(F)C(F)(OC(F)(F)C(F)(OC(F)(F)C(F)(F)C(F)(F)F)C(F)(F)F)C(F)(F)F)C(F)(F)F [Perfluoro-(2,5,8-trimethyl-3,6,9-trioxadodecanoic)acid] (in DMSO)
On the procedure: as §1

Compound in test [6]: O=C(O)C(F)(OC(F)(F)C(F)(F)C(F)(F)F)C(F)(F)F [Ammonium perfluoro-2-methyl-3-oxahexanoate] (in Water)
How it is done:
as §1

± gives the standard deviation of the averaged measurements.

For BT:sIL-6, the “level (log10)” value in test [1] (6700 nM) is -0.0455 ± 0.023; in test [1] (20000 nM), -0.0485 ± 0.026; in test [2] (6700 nM), -0.029 ± 0.045; in test [2] (20000 nM) it was -0.078 ± 0.016; in test [2] (60000 nM), -0.216 ± 0.054; with Octafluoroadipic acid (6700 nM), 0.013 ± 0.083. Besides, the “level (log10)” value was 0.021 ± 0.016 in the test with Octafluoroadipic acid (20000 nM); -0.102 ± 0.14 in the test with Octafluoroadipic acid (60000 nM); -0.038 ± 0.076 in test [3] (6700 nM); 0.0465 ± 0.14 in test [3] (20000 nM); 0.006 ± 0.03 in test [4] (6700 nM); -0.029 ± 0.0085 in test [4] (20000 nM). Further, the “level (log10)” value in test [4] (60000 nM) is -0.027 ± 0.076; in test [5] (1100 nM), -0.0085 ± 0.07; in test [5] (3300 nM), 0.0025 ± 0.053; in test [5] (10000 nM) it was 0.038 ± 0.013; in test [6] (6700 nM), -0.0915 ± 0.0035; in test [6] (20000 nM), -0.0905 ± 0.021. For the same test system, in test [6] (60000 nM), the “level (log10)” value is -0.151 ± 0.014.
For the test system BT:sIL-17A, the “level (log10)” value is -0.0315 ± 0.16 in test [1] (6700 nM); 0.0435 ± 0.052 in test [1] (20000 nM); -0.0535 ± 0.14 in test [2] (6700 nM); -0.25 ± 0.073 in test [2] (20000 nM); -0.393 ± 0.085 in test [2] (60000 nM); -0.0875 ± 0.044 with Octafluoroadipic acid (6700 nM). Also, the “level (log10)” value with Octafluoroadipic acid (20000 nM) was 0.0075 ± 0.064; with Octafluoroadipic acid (60000 nM), 0.128 ± 0.092; in test [3] (6700 nM), -0.0265 ± 0.029; in test [3] (20000 nM), -0.025 ± 0.17; in test [4] (6700 nM), -0.0995 ± 0.17; in test [4] (20000 nM) it was -0.131 ± 0.05. For the same test system, the “level (log10)” value in test [4] (60000 nM) is -0.148 ± 0.19; in test [5] (1100 nM) it was -0.024 ± 0.11; in test [5] (3300 nM), 0.121 ± 0.12; in test [5] (10000 nM), 0.0575 ± 0.17; in test [6] (6700 nM), 0.001 ± 0.02; in test [6] (20000 nM), 0.036 ± 0.037. For the same test system, the “level (log10)” value in test [6] (60000 nM) is -0.174 ± 0.096.
Take BT:sIL-17F: the “level (log10)” value in test [1] (6700 nM) was -0.0365 ± 0.084; in test [1] (20000 nM) it was -0.0785 ± 0.11; in test [2] (6700 nM), -0.0015 ± 0.03; in test [2] (20000 nM), -0.158 ± 0.12; in test [2] (60000 nM), -0.208 ± 0.0092; with Octafluoroadipic acid (6700 nM) it was -0.027 ± 0.0028. For the same test system, the “level (log10)” value in the test with Octafluoroadipic acid (20000 nM) is -0.009 ± 0.078; with Octafluoroadipic acid (60000 nM) it was 0.0275 ± 0.076; in test [3] (6700 nM) it was 0.074 ± 0.0014; in test [3] (20000 nM), 0.102 ± 0.064; in test [4] (6700 nM), -0.0315 ± 0.022; in test [4] (20000 nM), -0.071 ± 0.031. Also, the “level (log10)” value was -0.0005 ± 0.021 in test [4] (60000 nM); 0.044 ± 0.064 in test [5] (1100 nM); 0.0125 ± 0.16 in test [5] (3300 nM); -0.0705 ± 0.046 in test [5] (10000 nM); 0.111 ± 0.016 in test [6] (6700 nM); 0.116 ± 0.012 in test [6] (20000 nM). Moreover, the “level (log10)” value in test [6] (60000 nM) turned out to be 0.0455 ± 0.012.
Take BT:sTNF-alpha: the “level (log10)” value in test [1] (6700 nM) is -0.045 ± 0.13; in test [1] (20000 nM) it was -0.11 ± 0.15; in test [2] (6700 nM), -0.057 ± 0.045; in test [2] (20000 nM), -0.0705 ± 0.036; in test [2] (60000 nM), -0.097 ± 0.18; with Octafluoroadipic acid (6700 nM) it was 0.0535 ± 0.17. Besides, the “level (log10)” value is 0.028 ± 0.17 with Octafluoroadipic acid (20000 nM); 0.116 ± 0.02 with Octafluoroadipic acid (60000 nM); -0.0935 ± 0.15 in test [3] (6700 nM); 0.094 ± 0.11 in test [3] (20000 nM); -0.002 ± 0.037 in test [4] (6700 nM); -0.012 ± 0.083 in test [4] (20000 nM). In addition, the “level (log10)” value in test [4] (60000 nM) is 0.029 ± 0.058; in test [5] (1100 nM), -0.0445 ± 0.052; in test [5] (3300 nM), -0.028 ± 0.021; in test [5] (10000 nM), 0.0375 ± 0.079; in test [6] (6700 nM), -0.035 ± 0.037; in test [6] (20000 nM) it was 0.013 ± 0.034. The “level (log10)” value in test [6] (60000 nM) was 0.0045 ± 0.093.

(Values after the supplement of paper PMC10331698.)
